Measurements taken from publication PMC11645267, “Novel pharmacologic inhibition of lysine-specific demethylase 1 as a potential therapeutic for glioblastoma” (Cancer Gene Therapy, 2024).
Like-named read-outs stand apart in the source and are kept apart here.

Columns and labels:
[1] = Pharmacokinetic analysis, plasma and brain levels; format: in vivo; conditions: male, Crl:CD1 (ICR), mouse, ip, ICR mice, n = 3
Description: Male Crl:CD1 (ICR) mice from […], Japan (8 weeks old, n = 3) received a single intraperitoneal injection of S2172 at 30 mg/kg in 5 mL/kg of 15% DMSO/17.5% Cremophor EL/8.75% Ethanol/8.75% HCO-40/50% PBS. Serial blood sampling was conducted from the jugular vein at 0.25, 0.5, 1, 2, 4, and 6 hr time points. At 0.5 h after injection, mice were euthanized, underwent hemoperfusion, and their brain tissue was harvested, homogenized and diluted 4-fold with water. Blood and brain homogenate samples were treated with acetonitrile and centrifuged. The supernatant solution was used for drug level measurement by LC/MS/MS. Pharmacokinetic parameters were calculated using Moment method analysis.

KINGS1 = assay: Stemness marker expression (qPCR, western blot); format: cell-based; conditions: KINGS1, 5 μM, 96 h
Text: Super-enhancers consist of enhancer clusters with abundant binding of transcription factors and are highly enriched with H3K27ac marks. The H3K4me2 increased regions included the MYC locus and H3K4me2 de novo regions comprised Nestin and SOX2 loci (Fig. 2F, Supplementary Fig. S5A). These regions were also identified as super-enhancers in GSCs using data from our previous study (Fig. 2F). Compared to the large increase in H3K4me2 in these regions, changes in H3K4me3 were subtle after S2172 treatment (only 2582 regions were acquired modification) (Fig. 2C). Increasing the me2/me3 ratio at H3K4 is associated with reduced gene expression. […]
(§1) instructions. For GSC cells, the CellTiter-Glo 3D Viability Assay (Promega, Madison, WI, USA) was used to measure the living cells. All proliferation experiments were repeated […]
Total RNA from the cell lines was extracted using TRIzol (Thermo Fisher Scientific), followed by reverse-transcription using Prime Script RT Master Mix (Takara, Kusatsu, Japan). […]
B. Western blot analysis of LSD1,MYC, Nestin, SOX2,and ACTB in same cells as shown in panel A. ACTB was used as a loading control. […] Quantification of signal intensities of the Western blot (right panel). […] Right panel: Quantification of band signal intensities from the Western blot. […] The ratio was calculated by dividing the cleaved PARP band intensity by the full-length PARP band intensity. […]

GSC cells = assay: mRNA expression of super-enhancer-associated genes; format: cell-based; conditions: 96 h
Description: RNA-seq analysis was conducted to examine gene expression changes associated with super-enhancers/enhancers. Among the genes with de novo H3K4me2 modification, the average log2 fold changes (S2172 treatment relative to DMSO treatment) were −0.12 ± 0.03 for super-enhancer-related genes and −0.01 ± 0.01 for typical enhancer-related genes (P = 0.0004) (Supplementary Fig. S6B). In contrast, among the genes with increased H3K4me2 modification, the average log2 fold changes were −0.04 ± 0.01 for super-enhancer-related genes and −0.07 ± 001 for typical enhancer-related genes (P = 0.028) (Supplementary Fig. S6C). […]
as §1
Total RNA from the cell lines was extracted using TRIzol (Thermo Fisher Scientific), followed by reverse-transcription using Prime Script RT Master Mix (Takara, Kusatsu, Japan). TaqMan qPCR (Roche Diagnostics, Basel, Switzerland) and SYBR Green qPCR (TOYOBO, Osaka, Japan) were performed at least in triplicate for the target genes.
Expression levels of each gene were normalized to GAPDH. GAPDH for TaqMan PCR assays was Hs.PT.39a.22214836 (Integrated DNA Technologies, Coralville, IA, USA).
Oligonucleotide primers used for SYBR Green assays are shown in Supplementary […]

[2] = plasma, single intraperitoneal injection 30 mg/kg

With `NC1CCC(NC2CC2c2cc(F)cc(F)c2OCc2ccccc2)CC1` (stereo not drawn) [S2172] the concentration at 0.5 hr ([1]; brain, single intraperitoneal injection 30 mg/kg, read-out: Brain concentration at 0.5 hr) was 1520 ± 140 nM, the Kp at 0.5 h ([1]; brain/plasma, 0.5 hr after single intraperitoneal injection 30 mg/kg, read-out: Brain/plasma ratio) was 2.06 ± 0.39 and the Cmax [1, 2] was 1200 ± 120 nM. For the same molecule, the Tmax [1, 2] was 0.25 h, the half-life [1, 2] was 4.98 ± 1.64 h and the AUC(0-t) ([1]; plasma, single intraperitoneal injection 30 mg/kg, read-out: AUC0–6 h) was 1.11 ± 0.08 µM·h. For the same molecule, the concentration at 0.5 hr ([1]; plasma, single intraperitoneal injection 30 mg/kg, read-out: Plasma concentration at 0.5 hr) was 750 ± 90 nM, the “stemness marker expression at mRNA and protein levels” value (KINGS1) was “did not show significant changes” and the “expression of super-enhancer-associated genes EGR1 and CDK6” value (GSC cells) was “downregulated”.
